The structures appear in SMILES notation.

This assay deals with PBL. The assay is described as follows: cells. The settings on record: Homo sapiens, Blood.
Description: 50% inhibition of T-cell proliferation induced by anti-CD3/anti-CD28 co-stimulation in human peripheral blood leukocytes (PBLs).
Usually IC50 stands for the concentration that inhibits the measured activity by half. Read a high IC50 as weaker potency. `COc1cc2c(cc1NCCN(C)C)nc(Nc1c(C)cccc1Cl)c1cnc(C)n12` returned an IC50 of 130 nM. In other words, the sub-micromolar range. The figure for `Cc1cccc(Cl)c1Nc1nc2ccc(NCCN3CCOCC3)cc2n2cncc12` is 1300 nM; for `CCN(CC)c1ccc2nc(Nc3c(C)cccc3Cl)c3cncn3c2c1` it is 2600 nM; for `Cc1cccc(Cl)c1Nc1nc2ccc(N3CCNCC3)cc2n2cncc12` it is 380 nM.

The compound `Cc1cccc(Cl)c1Nc1nc2cc(NCCCN(C)C)ccc2n2cncc12` displayed an IC50 of 480 nM. The figure for `CCN(CC)c1ccc2c(c1)nc(Nc1c(C)cccc1Cl)c1cncn12` is 1700 nM.

`Cc1cccc(Cl)c1Nc1nc2cc(N3CCNCC3)ccc2n2cncc12` returned an IC50 of 1000 nM. The compound `CCNc1ccc2nc(Nc3c(C)cccc3Cl)c3cncn3c2c1` came in with a 50% inhibitory concentration (IC50) of 2200 nM. The value for `Cc1cccc(Cl)c1Nc1nc2ccc(NCCCN3CCOCC3)cc2n2cncc12` was 760 nM. As to `Cc1cccc(Cl)c1Nc1nc2ccc(N3CCN(C)CC3)cc2n2cncc12`, the IC50 stood at 240 nM. This IC50 lies about 3.2-fold lower than the previous one. `Cc1cccc(Cl)c1Nc1nc2cc3c(cc2n2cncc12)OCCO3` registered a 50% inhibitory concentration (IC50) of 2200 nM. In the case of `COc1cc2c(cc1NCCN(C)C)nc(Nc1c(C)cccc1Cl)c1cncn12`, 190 nM corresponded to half-maximal inhibition (IC50).

In turn, `CCN1CCN(c2ccc3nc(Nc4c(C)cccc4Cl)c4cncn4c3c2)CC1` showed an IC50 of 270 nM. Turning to `COc1ccc2nc(Nc3c(C)cccc3Cl)c3cncn3c2c1`, 1400 nM corresponded to half-maximal inhibition (IC50). With `Cc1cccc(Cl)c1Nc1nc2cc(N3CCOCC3)ccc2n2cncc12`, half-maximal inhibition (IC50) required 1000 nM. On to `Brc1ccccc1Nc1nc2ccccc2n2cncc12`, for which half-maximal inhibition (IC50) was put at 17000 nM. The value for `Cc1cccc(Cl)c1Nc1nc2cc(N3CCN(C)CC3)ccc2n2cncc12` was 720 nM; that for `Cc1cccc(Cl)c1Nc1nc2ccc(N(C)C)cc2n2cncc12` was 2000 nM; that for `Cc1cccc(Cl)c1Nc1nc2ccc(N3CC(C)NC(C)C3)cc2n2cncc12` (configuration not stated) was 340 nM.

`Cc1cccc(Cl)c1Nc1nc2cc(O)c(O)cc2n2cncc12` showed an IC50 above 9000 nM.

For `Cc1cccc(Cl)c1Nc1nc2cc(NCCN(C)C)ccc2n2cncc12`, the IC50 amounted to 520 nM.

The compound `COc1ccc2c(c1)nc(Nc1c(C)cccc1Cl)c1cncn12` had an IC50 of 2600 nM. In turn, `Cc1cccc(Cl)c1Nc1nc2cc3c(cc2n2cncc12)OCO3` yielded an IC50 of 2000 nM. As to `CC(=O)Nc1ccc2nc(Nc3c(C)cccc3Cl)c3cncn3c2c1`, half-maximal inhibition (IC50) was put at 1400 nM. For `COc1cc2nc(Nc3c(C)cccc3Cl)c3cncn3c2cc1N1CC(C)NC(C)C1` (configuration not stated), the IC50 came out at 760 nM. On to `COc1cc2c(cc1OCCN1CCOCC1)nc(Nc1c(C)cccc1Cl)c1cncn12`, for which the IC50 is 470 nM.

As for `COc1cc2nc(Nc3c(C)cccc3Cl)c3cncn3c2cc1OC`, the IC50 turned out to be 670 nM. The figure for `COc1cc2c(cc1NCCN1CCOCC1)nc(Nc1c(C)cccc1Cl)c1cncn12` is 280 nM.

Compound `COc1cccc2nc(Nc3c(C)cccc3Cl)c3cncn3c12` gave an IC50 of 2300 nM. This IC50 lies about 8.2-fold higher than the previous one. Take `Cc1cccc(Cl)c1Nc1nc2ccc(N)cc2n2cncc12`: the IC50 came out at 1600 nM. `Cc1cccc(Cl)c1Nc1nc2ccc(N3CCN(C=O)CC3)cc2n2cncc12` yielded an IC50 of 530 nM.

Consider `COc1cc2c(cc1NCCN(C)C)nc(Nc1c(F)cccc1Cl)c1cncn12`, for which the IC50 was 240 nM. `COc1cc2nc(Nc3c(C)cccc3C)c3cncn3c2cc1OC` showed a concentration for half-maximal inhibition (IC50) of 1100 nM.

`Cc1cccc(Cl)c1Nc1nc2ccc(N3CCCN(C)CC3)cc2n2cncc12`: the IC50 came out at 540 nM.

Compound `Cc1cccc(Cl)c1Nc1nc2cc(N3CC(C)NC(C)C3)ccc2n2cncc12` (configuration not stated) showed an IC50 of 570 nM. For `Cc1cccc(Cl)c1Nc1nc2ccc(NCCN(C)C)cc2n2cncc12`, the IC50 stood at 880 nM. This IC50 is about 1.5-fold higher than that of the compound before.

For `Cc1cccc(Cl)c1Nc1nc2ccc(N3CCOCC3)cc2n2cncc12`, the 50% inhibitory concentration (IC50) is 780 nM. This IC50 and that of the compound before are within 1.5-fold of each other.

The values are drawn from ChEMBL document CHEMBL1136039, “Synthesis and SAR of novel imidazoquinoxaline-based Lck inhibitors: improvement of cell potency” (Bioorg Med Chem Lett, 2002).
